Patent US12030862B2, “Allosteric chromenone inhibitors of phosphoinositide 3-kinase (PI3K) for the treatment of disease” (Petra Pharma Corporation, priority 2021, dated 2024)

What was measured:
[1] = target: T1, PI3K-α (PIK3CA) wild-type (WT) (p110α/p85α complex) (Homo sapiens, UniProt P42336); test: PI3K-Alpha kinase (PIK3CA) biochemical ADP-Glo assay, wild-type; conditions: 20 uM ATP, 1 h pre-incubation
T1 construct: Recombinant, catalytically active human full length PIK3KA Wild-type and H1047R mutant were purchased as 1:1 complex; 6xHis (N); purchased EMD Millipore Sigma 14-602M
Description: (§1) PI3K-Alpha kinase (PIK3CA) activity, wild-type and H1047R mutant and determining IC50 values for inhibitors
(§2) Recombinant, catalytically active human full length PIK3KA Wild-type and H1047R mutant were purchased as 1:1 complex of N-terminal 6× his tagged p110α (catalytic) and untagged p85α (regulatory subunit) from EMD Millipore Sigma (cat. no. 14-602M and 14-792M, respectively). PIP2diC8 (Avanti Polar Lipids Inc., cat. no. 850185) or Soy PI (Avanti Polar Lipids Inc., cat. No. 840044P) was used as lipid substrate. PIP2diC8 or PI lyophilized powder was dissolved in milliQ water to a concentration of 1 mM just before use. 10 mM stock compounds in DMSO were serially diluted 1:3 to generate a 10-point curve and plated using an acoustic liquid handler system (Echo 550 series instrument, Labcyte). A 10× intermediate compound plate (200 uM starting compound concentration and 10% DMSO) was prepared before starting the reaction. A typical reaction mixture (50 uL) comprised 40 mM HEPES buffer, pH 7.4, 25 mM MgCl2, 0.01% v/v triton-X-100, 1% v/v DMSO, 20 mM NaCl, 1-5 nM WT or H1047R PI3K protein, 20 uM ATP, and 50 uM PIP2diC8 or Soy PI. 1% DMSO buffer alone without test compound was employed as MAX control (full activity in the absence of any inhibitor), and no enzyme control was used to determine the level of background Adenosine 5′-diphosphate (ADP) (MIN control). First, Wild-type (WT) and H1047R mutant protein in kinase buffer with all components except ATP were incubated with or without compound at 27° C. for 1 h. After the pre-incubation, the reaction was initiated by the addition of 20 uL of 50 uM ATP (20 uM final concentration). The reaction was allowed to proceed until about 10% conversion of ATP (2 uM ADP) at 27° C. After that time, 5 uL of reaction was mixed with 5 uL of ADP-Kinase Glo Reagent (ADP-Glo Kinase assay kit, Promega cat. no. V9102) supplemented with MgCl2 10 mM to stop the reaction and deplete the remaining ATP for 40 min at room temperature. Then, 10 uL of Kinase Detection Reagent (ADP-Glo Kinase assay kit, Promega cat. no. V9102) was added to simultaneously convert ADP to ATP and allow the newly synthesized ATP to be measured using a luciferase/luciferin reaction. After 30 min at room temperature the light generated was measured using a luminometer (EnVision plate reader, Perkin Elmer). Process data through Genedata-Screener tool. Relative IC50 values are determined using luminescence units by calculating percent inhibition with respect to on-plate “MIN” and “MAX” controls. Data was analyzed using a 4-parameter nonlinear logistic equation (four-parameter logistic concentration-response curve): Y=bot+[(top−bot)/1+(x/IC50)slope] where Y=% inhibition, X=concentration yielding y% inhibition, Bottom=minimum value of y attained by curve, Top=maximum value of y attained by curve and Slope=steepness of curve at IC50. % Inh=[(median Max−x/median Max−median Min)]·100 IC50: concentration of compound that reduces a given response (ligand binding, enzyme response) by 50%. IC50 relative: concentration giving half the compound's maximum response.
(§3) For IC50 values shown in Table A, “A” means IC50<0.5 μM; “B” means IC50 ranging between 0.5 μM and 1.0 μM; “C” means IC50 ranging between 1 μM and 5 μM; “D” means IC50 ranging between 5 μM and 10 μM; “E” means IC50>10 μM.

[2] = target: T2, PI3K-α (PIK3CA) H1047R mutant (p110α/p85α complex) (Homo sapiens, UniProt P42336, H1047R); test: PI3K-Alpha kinase (PIK3CA) biochemical ADP-Glo assay, H1047R mutant; conditions: 20 uM ATP, 1 h pre-incubation
T2 construct: Recombinant, catalytically active human full length PIK3KA Wild-type and H1047R mutant were purchased as 1:1 complex; 6xHis (N); purchased EMD Millipore Sigma 14-792M
T2 sequence (P42336 whole entry H1047R): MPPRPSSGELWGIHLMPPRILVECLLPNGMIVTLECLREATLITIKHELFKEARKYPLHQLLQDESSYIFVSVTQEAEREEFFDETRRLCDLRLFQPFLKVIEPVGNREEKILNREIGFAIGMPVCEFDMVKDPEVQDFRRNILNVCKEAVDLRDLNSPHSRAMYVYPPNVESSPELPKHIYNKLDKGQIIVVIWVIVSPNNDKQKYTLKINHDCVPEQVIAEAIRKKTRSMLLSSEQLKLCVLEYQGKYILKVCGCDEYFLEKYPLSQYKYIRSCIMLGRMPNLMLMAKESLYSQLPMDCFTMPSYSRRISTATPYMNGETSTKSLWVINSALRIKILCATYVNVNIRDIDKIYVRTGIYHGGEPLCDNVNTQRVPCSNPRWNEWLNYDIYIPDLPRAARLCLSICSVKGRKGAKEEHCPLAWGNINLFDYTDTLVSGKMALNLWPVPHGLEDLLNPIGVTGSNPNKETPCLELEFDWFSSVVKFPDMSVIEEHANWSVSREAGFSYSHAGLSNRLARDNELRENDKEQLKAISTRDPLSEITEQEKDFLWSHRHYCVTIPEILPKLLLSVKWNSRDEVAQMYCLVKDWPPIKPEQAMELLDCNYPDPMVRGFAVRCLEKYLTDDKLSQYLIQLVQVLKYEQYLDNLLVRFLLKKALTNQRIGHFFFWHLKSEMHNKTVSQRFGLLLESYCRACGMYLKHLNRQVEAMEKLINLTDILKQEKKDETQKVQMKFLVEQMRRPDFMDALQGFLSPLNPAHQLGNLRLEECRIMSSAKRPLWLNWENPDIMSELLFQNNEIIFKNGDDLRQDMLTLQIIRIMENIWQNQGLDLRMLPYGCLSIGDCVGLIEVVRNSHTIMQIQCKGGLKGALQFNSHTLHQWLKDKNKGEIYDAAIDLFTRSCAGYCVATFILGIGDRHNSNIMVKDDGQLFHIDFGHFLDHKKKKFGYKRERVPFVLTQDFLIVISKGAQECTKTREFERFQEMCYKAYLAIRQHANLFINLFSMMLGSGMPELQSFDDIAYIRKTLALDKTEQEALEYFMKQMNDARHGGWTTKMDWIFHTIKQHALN
T2 sequence (P27986 whole entry partner): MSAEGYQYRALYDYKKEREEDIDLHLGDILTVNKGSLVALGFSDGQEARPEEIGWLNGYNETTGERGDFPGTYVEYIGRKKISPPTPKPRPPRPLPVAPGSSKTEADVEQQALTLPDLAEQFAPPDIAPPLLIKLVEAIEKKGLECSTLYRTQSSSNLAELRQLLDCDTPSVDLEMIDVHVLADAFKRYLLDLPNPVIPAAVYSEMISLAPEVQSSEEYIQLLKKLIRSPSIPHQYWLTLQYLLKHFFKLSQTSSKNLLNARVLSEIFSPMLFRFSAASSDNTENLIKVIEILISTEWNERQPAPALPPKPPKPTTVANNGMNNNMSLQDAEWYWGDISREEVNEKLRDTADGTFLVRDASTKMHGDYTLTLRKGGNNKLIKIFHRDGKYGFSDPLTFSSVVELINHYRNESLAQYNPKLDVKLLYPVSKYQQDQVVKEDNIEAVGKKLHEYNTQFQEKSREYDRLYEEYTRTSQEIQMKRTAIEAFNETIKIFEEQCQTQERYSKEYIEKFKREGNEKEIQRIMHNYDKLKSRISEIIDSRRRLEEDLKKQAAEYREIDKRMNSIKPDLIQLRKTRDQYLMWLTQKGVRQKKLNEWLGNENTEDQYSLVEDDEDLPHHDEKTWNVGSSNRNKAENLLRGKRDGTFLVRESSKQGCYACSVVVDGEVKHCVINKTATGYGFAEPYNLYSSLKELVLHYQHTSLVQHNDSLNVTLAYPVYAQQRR
Description: as §1, §2, §3

[3] = PIP2diC8 lipid substrate (footnote 1)

Row | IC50 ([1]; Soy PI lipid substrate) | IC50 ([2]; Soy PI lipid substrate) | IC50 [1, 3] | IC50 [2, 3] | SMILES
1 | > 10 µM | 1 to 5 µM | – | – | Cc1cc(C(C)Nc2ccccc2C(=O)O)c2oc(C3Cc4ccccc4C3)cc(=O)c2c1 (single isomer, unassigned; isomer 1) [Example 18, 2-[1-(2-Indan-2-yl-6-methyl-4-oxo-chromen-8-yl)ethylamino]benzoic acid, Isomer 1]
2 | > 10 µM | < 0.5 µM | – | – | CC(Nc1ccccc1C(=O)O)c1cccc2c(=O)cc(C3CCCCC3)oc12 (single isomer, unassigned; isomer 2) [Example 13, 2-[1-(2-Cyclohexyl-4-oxo-chromen-8-yl)ethylamino]benzoic acid, Isomer 2]
3 | 0.5 to 1 µM | < 0.5 µM | – | – | Cc1cc(C(C)Nc2ccccc2C(=O)O)c2oc(C3CCC(F)(F)CC3)c(C)c(=O)c2c1 (single isomer, unassigned; isomer 1) [Example 16, 2-[1-[2-(4,4-Difluorocyclohexyl)-3,6-dimethyl-4-oxo-chromen-8-yl]ethylamino]benzoic acid, Isomer 1]
4 | – | – | 1 to 5 µM | < 0.5 µM | Cc1cc(C(C)Nc2ccccc2C(=O)O)c2oc(C3CCC(C)(C)CC3)cc(=O)c2c1 (single isomer, unassigned; isomer 1) [Example 10, 2-[1-[2-(4,4-Dimethylcyclohexyl)-6-methyl-4-oxo-chromen-8-yl]ethylamino]benzoic acid, Isomer 1]
5 | > 10 µM | > 10 µM | – | – | Cc1cc(C(C)Nc2ccccc2C(=O)O)c2oc(C3CCC(F)(F)CC3)c(C)c(=O)c2c1 (single isomer, unassigned; isomer 2) [Example 17, 2-[1-[2-(4,4-Difluorocyclohexyl)-3,6-dimethyl-4-oxo-chromen-8-yl]ethylamino]benzoic acid, Isomer 2]
6 | – | – | > 10 µM | > 10 µM | CC(Nc1ccccc1C(=O)O)c1cccc2c(=O)cc(C3CCCCC3)oc12 (single isomer, unassigned; isomer 1) [Example 12, 2-[1-(2-Cyclohexyl-4-oxo-chromen-8-yl)ethylamino]benzoic acid, Isomer 1]
7 | > 10 µM | > 10 µM | – | – | Cc1cc(C(C)Nc2ccccc2C(=O)O)c2oc(C3CCC(F)(F)CC3)cc(=O)c2c1 (single isomer, unassigned; isomer 1) [Example 14, 2-[1-[2-(4,4-Difluorocyclohexyl)-6-methyl-4-oxo-chromen-8-yl]ethylamino]benzoic acid, Isomer 1]
8 | 1 to 5 µM | < 0.5 µM | – | – | Cc1cc(C(C)Nc2ccccc2C(=O)O)c2oc(C3Cc4ccccc4C3)c(C)c(=O)c2c1 (single isomer, unassigned; isomer 1) [Example 21, 2-[1-(2-Indan-2-yl-3,6-dimethyl-4-oxo-chromen-8-yl)ethylamino]benzoic acid, Isomer 1]
9 | – | – | > 10 µM | 1 to 5 µM | Cc1cc(C(C)Nc2ccccc2C(=O)O)c2oc(C3CCCCC3)cc(=O)c2c1 (single isomer, unassigned; isomer 1) [Example 8, 2-[1-(2-Cyclohexyl-6-methyl-4-oxo-chromen-8-yl)ethylamino]benzoic acid, Isomer 1]
10 | 1 to 5 µM | < 0.5 µM | – | – | Cc1cc(C(C)Nc2ccccc2C(=O)O)c2oc(C3Cc4ccccc4C3)cc(=O)c2c1 (single isomer, unassigned; isomer 2) [Example 19, 2-[1-(2-Indan-2-yl-6-methyl-4-oxo-chromen-8-yl)ethylamino]benzoic acid, Isomer 2]
11 | > 10 µM | < 0.5 µM | – | – | Cc1cc(C(C)Nc2ccccc2C(=O)O)c2oc(C3(c4ccccc4)CC3)cc(=O)c2c1 (stereo not drawn) [Example 7, 2-[1-[6-Methyl-4-oxo-2-(1-phenylcyclopropyl)chromen-8-yl]ethylamino]benzoic acid; 2,2,2-trifluoroacetic acid]
12 | – | – | < 0.5 µM | < 0.5 µM | Cc1cc(C(C)Nc2ccccc2C(=O)O)c2oc(C3CCCCC3)cc(=O)c2c1 (single isomer, unassigned; isomer 2) [Example 9, 2-[1-(2-Cyclohexyl-6-methyl-4-oxo-chromen-8-yl)ethylamino]benzoic acid, Isomer 2]
13 | – | – | > 10 µM | > 10 µM | Cc1cc(C(C)Nc2ccccc2C(=O)O)c2oc(C3CCC(C)(C)CC3)cc(=O)c2c1 (single isomer, unassigned; isomer 2) [Example 11, 2-[1-[2-(4,4-Dimethylcyclohexyl)-6-methyl-4-oxo-chromen-8-yl]ethylamino]benzoic acid, Isomer 2]
14 | > 10 µM | > 10 µM | – | – | Cc1cc(C(C)Nc2ccccc2C(=O)O)c2oc(C3Cc4ccccc4C3)c(C)c(=O)c2c1 (single isomer, unassigned; isomer 2) [Example 22, 2-[1-(2-Indan-2-yl-3,6-dimethyl-4-oxo-chromen-8-yl)ethylamino]benzoic acid, Isomer 2]
15 | > 10 µM | < 0.5 µM | – | – | Cc1cc(C(C)Nc2ccccc2C(=O)O)c2oc(C3CCC(F)(F)CC3)cc(=O)c2c1 (single isomer, unassigned; isomer 2) [Example 15, 2-[1-[2-(4,4-Difluorocyclohexyl)-6-methyl-4-oxo-chromen-8-yl]ethylamino]benzoic acid, Isomer 2]
